Patent publication US11470848B2, “Consortium of (carbamate) thiodicarb-resistant and (pyrethroid) biphenthrin-resistant bacteria and use thereof in liquid fertilizers” (priority 2018, dated 2022)
Read-outs that look alike come from different tables or passages of the source.

Columns and labels:
Type in all cases: cell-based
Azotobacter vinelandii = tested on: Azotobacter vinelandii
Procedure: (§1) Bacteria strains, nitrifiers, phosphorus solubilizers and antagonists for pathogens: • a) Azotobacter vinelandii • b) Bacillus megaterium • c) Bacillus subtillis • d) Bacillus thuringiensis • e) Clostridium pasteuranium • f) Rhizobium Preparation for Stage Development • 1. Glass material is sterilized in an autoclave. • 2. The required amount of growth media is prepared, DFA Agar, Malt Agar (Corn Agar) and (PDA) to obtain viable colonies. • 3. Lethal dose (LD) applied to a hectare is established, for thiodicarb as well as bifenthrin. 10 Petri dishes are prepared with 0.1 LD of thiodicarb of bifenthrin. Dishes are incubated at 25° C. for 72 hours with cold light.
(§2) Methodology • a. Petri dishes are placed inside the laminar flow chamber along with the diluted samples, to seed microorganisms in the dishes, a one ml sample of the strain is taken with an automated pipette, 10^−1 and 10^−2 solutions are performed and each solution is homogenized. • b. […] Inoculated dishes are incubated for 72 hours and the bacteria growth will be recorded, the product concentration impact is determined over the plate growth (12 hours of incubation). • e. […] The colony diameter is determined using a graduated ruler, data is recorded subtracting the diameter of the seeded dish, from which the effect over the mycelial growth will be determined compared to the control (not poisoned MA, denominated as percentage of inhibition of radial growth (PIRG %). • h. Progress is recorded daily and after 7 days analysis of an acceptable coverage is performed, if not, the procedure is repeated as many times as required. • i. From the 10 Petri dishes for each microorganism, the one with the lowest mortality is the one that will continue with the following study. • j. […]
(§3) Characteristics for this procedure were recorded during all stages through the following indicators: • a. […] Percentage of inhibition measured in Number of CFU/mm • c. […]

Bacillus megaterium = assay: Stagewise adaptation on growth media with thiodicarb / bifenthrin, mortality; details: for Resistant to: (FINAL): after the selective process, 40 stages
Procedure: as §1
Methodology • a. Petri dishes are placed inside the laminar flow chamber along with the diluted samples, to seed microorganisms in the dishes, a one ml sample of the strain is taken with an automated pipette, 10^−1 and 10^−2 solutions are performed and each solution is homogenized. • b. Having the petri dishes with the sterile and cold growth media, it is homogenized with 6 right to left movements, 6 clockwise movements, 6 counterclockwise movements and 6 front to back movements over a flat horizontal surface until the inoculum is completely integrated into the media, stand until it solidifies and each dish is covered with parafilm to avoid contamination during incubation. • c. Dishes with thiodicarb and Bifenthrin are placed inside the incubator at 25° C. for 72 hours with a cold light lamp. • d. Inoculated dishes are incubated for 72 hours and the bacteria growth will be recorded, the product concentration impact is determined over the plate growth (12 hours of incubation). • e. The residual impact of the product is reviewed after 7 days in the malt agar and PDA agar medias. • f. […] The colony diameter is determined using a graduated ruler, data is recorded subtracting the diameter of the seeded dish, from which the effect over the mycelial growth will be determined compared to the control (not poisoned MA, denominated as percentage of inhibition of radial growth (PIRG %). • h. Progress is recorded daily and after 7 days analysis of an acceptable coverage is performed, if not, the procedure is repeated as many times as required. • i. From the 10 Petri dishes for each microorganism, the one with the lowest mortality is the one that will continue with the following study. • j. […]
as §3
(§4) For each species, stages analyzing times required to cover the entire field were performed. Once this time was determined, they were left to rest for 10 days to be later subject to the following protocol: […]

Bacillus subtillis = assay: as above; details: for Resistant to: (FINAL): after the adaptation process, 40 stages
Procedure: as §1
(§5) Methodology • a. Petri dishes are placed inside the laminar flow chamber along with the diluted samples, to seed microorganisms in the dishes, a one ml sample of the strain is taken with an automated pipette, 10^−1 and 10^−2 solutions are performed and each solution is homogenized. • b. Having the petri dishes with the sterile and cold growth media, it is homogenized with 6 right to left movements, 6 clockwise movements, 6 counterclockwise movements and 6 front to back movements over a flat horizontal surface until the inoculum is completely integrated into the media, stand until it solidifies and each dish is covered with parafilm to avoid contamination during incubation. • c. Dishes with thiodicarb and Bifenthrin are placed inside the incubator at 25° C. for 72 hours with a cold light lamp. • d. Inoculated dishes are incubated for 72 hours and the bacteria growth will be recorded, the product concentration impact is determined over the plate growth (12 hours of incubation). • e. The residual impact of the product is reviewed after 7 days in the malt agar and PDA agar medias. • f. If there is no growth over 10%, the process is repeated until a mortality under 90% is obtained. • g. The colony diameter is determined using a graduated ruler, data is recorded subtracting the diameter of the seeded dish, from which the effect over the mycelial growth will be determined compared to the control (not poisoned MA, denominated as percentage of inhibition of radial growth (PIRG %). • h. Progress is recorded daily and after 7 days analysis of an acceptable coverage is performed, if not, the procedure is repeated as many times as required. • i. From the 10 Petri dishes for each microorganism, the one with the lowest mortality is the one that will continue with the following study. • j. The study is performed again using this percentage until coverage increases and so on, the addition of thiodicarb and bifenthrin is alternated with the LD in intervals of 0.1 LD; all these experiments have been designed with the experimental strains and a control. • k. With the data obtained from the bacterial growth, the percentage of inhibition of gradual growth is obtained, the data is transformed for its analysis with the expression 2 arc sin. A two-way classification analysis of variance is applied and later the Turkey test is performed using a 5% probability.
(§6) Characteristics for this procedure were recorded during all stages through the following indicators: • a. Growth speed • b. Percentage of inhibition measured in Number of CFU/mm • c. Percentage of poison resistance
as §4

Bacillus thuringiensis = assay: as above; details: for Resistant to: (FINAL): after the adaptation process, 48 stages
Procedure: as §1, §5, §6, §4

Clostridium pasteuranium = assay: as above; details: for Resistant to: (FINAL): after the selective process, 40 stages
Procedure: as §1, §5, §6, §4

Rhizobium sp = assay: as above; details: for Resistant to: (FINAL): after the adaptation process, 40 stages
Procedure: as §1, §2, §3

[1] = bifenthrin 0.9 LD (0.00000042 gr), stages E-37 and E-38
[2] = thiodicarb 0.9 LD (0.00016 gr), stages E-33 and E-34
[3] = thiodicarb 0.2 LD (0.000035 gr), stages E-3 and E-4
[4] = thiodicarb 0.1 LD (0.0000175 gr), stage E-2

SMILES: Cc1c(COC(=O)[C@@H]2[C@H](/C=C(\Cl)C(F)(F)F)C2(C)C)cccc1-c1ccccc1 (racemic) [bifenthrin, 2-methyl biphenyl-3-ilmetil(2)-(1RS,3RS)-3-(2-chlorine 3,3,3-trifluoropropene)-2,2-dimethyl-cyclo-propane-carboxylate]
- mortality (Azotobacter vinelandii; bifenthrin 0.2 LD (0.00000012 gr), stages E-7 and E-8): 60%
- mortality (Azotobacter vinelandii; [1]): 10%
- Resistant to: (FINAL) (Bacillus megaterium): 1 LD of thiodicarb
- mortality (Bacillus megaterium; bifenthrin 0.1 LD (0.00000006 gr), stages E-5 and E-6): 63%
- Resistant to: (FINAL) (Bacillus subtillis): 1 LD of thiodicarb
- mortality (Bacillus subtillis; bifenthrin 0.3 LD (0.00000018 gr), stages E-13 and E-14): 65%
- Resistant to: (FINAL) (Bacillus thuringiensis): 1.2 LD of thiodicarb
- Resistant to: (FINAL) (Clostridium pasteuranium): 1 DL of thiodicarb
- mortality (Clostridium pasteuranium; [1]): 10%
- Resistant to: (FINAL) (Rhizobium sp): 1 DL of thiodicarb

SMILES: CS/C(C)=N\OC(=O)N(C)SN(C)C(=O)O/N=C(\C)SC [thiodicarb]
- mortality (Azotobacter vinelandii; [2]): 10%
- Resistant to: (FINAL) (Bacillus megaterium): 1 LD of thiodicarb
- mortality (Bacillus megaterium; [3]): 65%
- Resistant to: (FINAL) (Bacillus subtillis): 1 LD of thiodicarb
- mortality (Bacillus subtillis; thiodicarb 0.1 LD (0.0000175 gr), stage E-1, until day 68 of incubation): 82%
- mortality (Bacillus subtillis; [4]): 80%
- Resistant to: (FINAL) (Bacillus thuringiensis): 1.2 LD of thiodicarb
- mortality (Bacillus thuringiensis; [2]): 30%
- mortality (Bacillus thuringiensis; thiodicarb 1 LD (0.00018 gr), stages E-35 and E-36): 25%
- mortality (Bacillus thuringiensis; thiodicarb 1.2 LD (0.00022 gr), stages E-43 and E-44): 14%
- Resistant to: (FINAL) (Clostridium pasteuranium): 1 DL of thiodicarb
- mortality (Clostridium pasteuranium; thiodicarb 0.1 LD (0.0000175 gr), stage E-1, until incubation day 72): 87%
- mortality (Clostridium pasteuranium; [4]): 84%
- Resistant to: (FINAL) (Rhizobium sp): 1 DL of thiodicarb
- mortality (Rhizobium sp; [3]): 60%
